Where two headings read alike, the source gives them in different places. Marks after values point to notes of the source that are not given here.
What was measured:
male rats = experiment: 28-day repeated dose oral toxicity study (OECD 407) with GC-MS/LC-MS plasma metabolite profiling, male rats; type: in vivo, rat
Source text: Drinking water was also offered ad libitum.
The samples were centrifuged for generation of plasma.

female rats [1] = experiment: 28-day repeated dose oral toxicity study (OECD 407) with GC-MS/LC-MS plasma metabolite profiling, female rats
Protocol: (§1) A group of each 5 male and female rats was dosed once daily with the indicated compounds (see Table 5, below for compounds, applied doses and administeration details) over 28 days.
(§2) Each dose group in the studies consisted of five rats per sex. Additional groups of each 5 male and female animals served as controls. Before starting the treatment period, animals, which were 62-64 days old when supplied, were acclimatized to the housing and environmental conditions for 7 days. All animals of the animal population were kept under the same constant temperature (20-24±3° C.) and the same constant humidity (30-70%). The animals of the animal population were fed ad libitum. The food to be used was essentially free of chemical or microbial contaminants. Drinking water was also offered ad libitum. Accordingly, the water was free of chemical and microbial contaminants as laid down in the European Drinking Water Directive 98/83/EG. The illumination period was 12 hours light followed by 12 hours darkness (12 hours light, from 6:00 to 18:00, and 12 hours darkness, from 18:00 to 6:00).
(§3) In the morning of day 7, 14, and 28, blood was taken from the retroorbital venous plexus from fasted anaesthetized animals. From each animal, 1 ml of blood was collected with EDTA as anticoagulant. The samples were centrifuged for generation of plasma. All plasma samples were covered with a N2 atmosphere and then stored at −80° C. until analysis.
(§4) For mass spectrometry-based metabolite profiling analyses plasma samples were extracted and a polar and a non-polar (lipid) fraction was obtained. For GC-MS analysis, the non-polar fraction was treated with methanol under acidic conditions to yield the fatty acid methyl esters. Both fractions were further derivatised with O-methyl-hydroxyamine hydrochloride and pyridine to convert Oxogroups to O-methyloximes and subsequently with a silylating agent before analysis. In LC-MS analysis, both fractions were reconstituted in appropriate solvent mixtures. HPLC was performed by gradient elution on reversed phase separation columns.
(§5) Following comprehensive analytical validation steps, the data for each analyte were normalized against data from pool samples. These samples were run in parallel through the whole process to account for process variability. The significance of treatment group values specific for sex, treatment duration and metabolite was determined by comparing means of the treated groups to the means of the respective untreated control groups using WELCH-test and quantified with treatment ratios versus control and p-values.

female rats [2] = settings: rat, in vivo
Protocol: as §1, §2, §3, §4, §5

CC/C(=C(\c1ccccc1)c1ccc(OCCN(C)C)cc1)c1ccccc1 [Tamoxifen]
16-Methylheptadecanoic acid change in plasma (male rats; m7): 0.58* | 17-Methyloctadecanoic acid change in plasma (male rats; m7): 0.61* | Campesterol change in plasma (male rats; m7): 0.59* | Lysophosphatidylcholine (C18:1) change in plasma (male rats; m7): 0.78* | Myristic acid (C14:0) change in plasma (male rats; m7): 0.65* | PC No 04 (putative) change in plasma (male rats; m7): 0.44* | Palmitoleic acid (C16:cis[9]1) change in plasma (male rats; m7): 0.57* | Phosphatidylcholine (C16:0,C20:4) change in plasma (male rats; m7): 0.87* | Phosphatidylcholine (C16:1,C18:2) change in plasma (male rats; m7): 0.76* | Phosphatidylcholine (C18:1,C18:2) change in plasma (male rats; m7): 0.79* | Phosphatidylcholine No 02 change in plasma (male rats; m7): 0.53* | Sphingomyelin (d18:1,C16:0) change in plasma (male rats; m7): 0.66* | Tyrosine change in plasma (male rats; m7): 0.77* | Unknown lipid (28000473) change in plasma (male rats; m7): 0.31* | Unknown lipid (68000034) change in plasma (male rats; m7): 0.74* | Uracil change in plasma (male rats; m7): 0.86* | beta-Sitosterol change in plasma (male rats; m7): 0.75* | Lysophosphatidylcholine (C20:4) change in plasma (male rats; m7, first of two rows with this name (r24)): 0.90* | Lysophosphatidylcholine (C20:4) change in plasma (male rats; m7, second of two rows with this name (r25)): 0.77* | 16-Methylheptadecanoic acid change in plasma (male rats; m14): 0.60* | 17-Methyloctadecanoic acid change in plasma (male rats; m14): 0.64* | Campesterol change in plasma (male rats; m14): 0.74* | Lysophosphatidylcholine (C18:1) change in plasma (male rats; m14): 0.84* | Myristic acid (C14:0) change in plasma (male rats; m14): 0.60* | PC No 04 (putative) change in plasma (male rats; m14): 0.56* | Palmitoleic acid (C16:cis[9]1) change in plasma (male rats; m14): 0.43* | Phosphatidylcholine (C16:0,C20:4) change in plasma (male rats; m14): 0.96* | Phosphatidylcholine (C16:1,C18:2) change in plasma (male rats; m14): 0.69* | Phosphatidylcholine (C18:1,C18:2) change in plasma (male rats; m14): 0.83* | Phosphatidylcholine No 02 change in plasma (male rats; m14): 0.60* | Sphingomyelin (d18:1,C16:0) change in plasma (male rats; m14): 0.73* | Tyrosine change in plasma (male rats; m14): 0.85* | Unknown lipid (28000473) change in plasma (male rats; m14): 0.46* | Unknown lipid (68000034) change in plasma (male rats; m14): 0.59* | Uracil change in plasma (male rats; m14): 0.75* | beta-Sitosterol change in plasma (male rats; m14): 0.83* | Lysophosphatidylcholine (C20:4) change in plasma (male rats; m14, first of two rows with this name (r24)): 0.89* | Lysophosphatidylcholine (C20:4) change in plasma (male rats; m14, second of two rows with this name (r25)): 0.79* | 16-Methylheptadecanoic acid change in plasma (male rats; m28): 0.48* | 17-Methyloctadecanoic acid change in plasma (male rats; m28): 0.48* | Campesterol change in plasma (male rats; m28): 0.55* | Lysophosphatidylcholine (C18:1) change in plasma (male rats; m28): 0.81* | Myristic acid (C14:0) change in plasma (male rats; m28): 0.61* | PC No 04 (putative) change in plasma (male rats; m28): 0.54* | Palmitoleic acid (C16:cis[9]1) change in plasma (male rats; m28): 0.32* | Phosphatidylcholine (C16:0,C20:4) change in plasma (male rats; m28): 0.97* | Phosphatidylcholine (C16:1,C18:2) change in plasma (male rats; m28): 0.74* | Phosphatidylcholine (C18:1,C18:2) change in plasma (male rats; m28): 0.99 | Phosphatidylcholine No 02 change in plasma (male rats; m28): 0.62* | Sphingomyelin (d18:1,C16:0) change in plasma (male rats; m28): 0.71* | Tyrosine change in plasma (male rats; m28): 0.86 | Unknown lipid (28000473) change in plasma (male rats; m28): 0.37* | Unknown lipid (68000034) change in plasma (male rats; m28): 0.45* | Uracil change in plasma (male rats; m28): 0.79* | beta-Sitosterol change in plasma (male rats; m28): 0.73* | Lysophosphatidylcholine (C20:4) change in plasma (male rats; m28, first of two rows with this name (r24)): 0.88* | Lysophosphatidylcholine (C20:4) change in plasma (male rats; m28, second of two rows with this name (r25)): 0.70* | 3-Methoxytyrosine, ratio versus control (male rats; plasma, day 7): 1.17* | Serine, ratio versus control (male rats; plasma, day 7): 1.17* | Xylitol, ratio versus control (male rats; plasma, day 7): 1.57* | Threonine, ratio versus control (male rats; plasma, day 7 (Table 7c)): 0.96 | 3-Methoxytyrosine, ratio versus control (male rats; plasma, day 14): 1.31* | Xylitol, ratio versus control (male rats; plasma, day 14): 2.05* | Threonine, ratio versus control (male rats; plasma, day 14 (Table 7c)): 1.22* | 3-Methoxytyrosine, ratio versus control (male rats; plasma, day 28): 1.39* | Xylitol, ratio versus control (male rats; plasma, day 28): 1.75* | Threonine, ratio versus control (male rats; plasma, day 28 (Table 7c)): 1.10* | 3-Methoxytyrosine, ratio versus control (female rats [1]; day 7): 1.26* | 16-Methylheptadecanoic acid, ratio versus control (female rats [1]; day 7): 0.73* | 17-Methyloctadecanoic acid, ratio versus control (female rats [1]; day 7): 0.80* | Ketoleucine, ratio versus control (female rats [1]; day 7): 0.92 | Normetanephrine, ratio versus control (female rats [1]; day 7): 0.84 | Palmitoleic acid (C16:cis[9]1), ratio versus control (female rats [1]; day 7): 0.91 | Phosphatidylcholine (C18:0,C20:3), ratio versus control (female rats [1]; day 7): 0.81* | TAG (C18:1,C18:2,C18:3), ratio versus control (female rats [1]; day 7): 2.78* | TAG (C42:9) (DAG-Fragment) (putative), ratio versus control (female rats [1]; day 7): 0.56* | Threonine, ratio versus control (female rats [1]; day 7): 1.17* | Uracil, ratio versus control (female rats [1]; day 7): 0.86* | Xylitol, ratio versus control (female rats [1]; day 7): 1.29* | TAG (C18:2,C18:2), ratio versus control (female rats [1]; day 7 (Table 7a)): 3.21* | Lysophosphatidylcholine (C20:4), ratio versus control (female rats [1]; day 7 (first line of this name, r15)): 0.92* | Lysophosphatidylcholine (C20:4), ratio versus control (female rats [1]; day 7 (second line of this name, r16)): 0.88* | 3-Methoxytyrosine, ratio versus control (female rats [1]; day 14): 1.61* | 16-Methylheptadecanoic acid, ratio versus control (female rats [1]; day 14): 0.97 | 17-Methyloctadecanoic acid, ratio versus control (female rats [1]; day 14): 0.92 | Ketoleucine, ratio versus control (female rats [1]; day 14): 0.71* | Normetanephrine, ratio versus control (female rats [1]; day 14): 1.15 | Palmitoleic acid (C16:cis[9]1), ratio versus control (female rats [1]; day 14): 0.69* | Phosphatidylcholine (C18:0,C20:3), ratio versus control (female rats [1]; day 14): 0.89* | TAG (C18:1,C18:2,C18:3), ratio versus control (female rats [1]; day 14): 2.96* | TAG (C42:9) (DAG-Fragment) (putative), ratio versus control (female rats [1]; day 14): 0.65* | Uracil, ratio versus control (female rats [1]; day 14): 0.86* | Xylitol, ratio versus control (female rats [1]; day 14): 1.63* | TAG (C18:2,C18:2), ratio versus control (female rats [1]; day 14 (Table 7a)): 2.84* | Lysophosphatidylcholine (C20:4), ratio versus control (female rats [1]; day 14 (first line of this name, r15)): 0.96* | Lysophosphatidylcholine (C20:4), ratio versus control (female rats [1]; day 14 (second line of this name, r16)): 0.84* | 3-Methoxytyrosine, ratio versus control (female rats [1]; day 28): 1.38* | 16-Methylheptadecanoic acid, ratio versus control (female rats [1]; day 28): 0.78* | 17-Methyloctadecanoic acid, ratio versus control (female rats [1]; day 28): 0.89* | Ketoleucine, ratio versus control (female rats [1]; day 28): 0.77* | Normetanephrine, ratio versus control (female rats [1]; day 28): 0.89 | Palmitoleic acid (C16:cis[9]1), ratio versus control (female rats [1]; day 28): 0.60* | Phosphatidylcholine (C18:0,C20:3), ratio versus control (female rats [1]; day 28): 0.88* | TAG (C18:1,C18:2,C18:3), ratio versus control (female rats [1]; day 28): 2.18* | TAG (C42:9) (DAG-Fragment) (putative), ratio versus control (female rats [1]; day 28): 0.81* | Threonine, ratio versus control (female rats [1]; day 28): 0.98 | Uracil, ratio versus control (female rats [1]; day 28): 0.64* | Xylitol, ratio versus control (female rats [1]; day 28): 1.71* | TAG (C18:2,C18:2), ratio versus control (female rats [1]; day 28 (Table 7a)): 2.20* | Lysophosphatidylcholine (C20:4), ratio versus control (female rats [1]; day 28 (first line of this name, r15)): 0.91* | Lysophosphatidylcholine (C20:4), ratio versus control (female rats [1]; day 28 (second line of this name, r16)): 0.81* | Threonine, ratio versus control (female rats [2]): 1.05*

From patent US20150017667A1, “MEANS AND METHODS FOR ASSESSING LIVER DISORDERS” (BASF SE, priority 2012, published 2015)
